The source of these data is PMC10683027, “Discovery of tert-Butyl Ester Based 6-Diazo-5-oxo-L-norleucine Prodrugs for Enhanced Metabolic Stability and Tumor Delivery” (Journal of Medicinal Chemistry, 2023).

The test system of this assay is P493B lymphoma cells. Description: Cell viability assay. It counts as cell-based. The settings on record: Homo sapiens, 72 h, 72 h incubation. As to the method: Cell proliferation assays were performed as we have previously described.[19] Briefly, P493B lymphoma cells were plated in 96-well plates at a density of 20 000 cells/well in a final volume of 100 μL of growth media. P11, or DRP-104, was added to cells in half-log serial dilutions with a final concentration of 0.2% DMSO. Cells were allowed to proliferate for 72 h, and thereafter, 20 μL of CellTiter 96 AQueous (Promega no. 3580) was added per well and incubated for 2 h. Absorbance was measured at 490 nm. Relative cell viability was calculated from the difference between untreated cell wells (100%) and media well without cells (0%).

The term EC50 denotes the midpoint of the concentration-response curve. In the case of `CN(C)CC(=O)N[C@@H](Cc1ccccc1)C(=O)N[C@@H](CCC(=O)C=[N+]=[N-])C(=O)OC(C)(C)C` [Prodrug P11, tert-Butyl (S)-6-Diazo-2-((S)-2-(2-(dimethylamino)acetamido)-3-phenylpropanamido)-5-oxohexanoate], the EC50 was around 300 nM.
